In patent publication US8834870B2, “Treatment of leukemias and chronic myeloproliferative diseases with antibodies to EphA3” (Kalobios Pharmaceuticals, Inc., priority 2009, dated 2014):

Experiments:
EphA3 antigen = EphA3 antigen (UniProt P29320); experiment: ELISA on EphA3 antigen
[1] = system: peripheral blood cells from essential thrombocythemia (ET) patient; experiment: Apoptosis induction (Annexin V flow cytometry), ET primary cells; assay type: cell-based, human; conditions: sample PB-1, ET; camptothecin 10 μM positive control; 24 hours
Method: (§1) An engineered human activating antibody that binds to EphA3 was evaluated for the ability to induce apoptosis in vitro in primary cells isolated from patients or individuals suffering from myeloproliferative disorders. Cells were seeded at 2.5×10^5 cells/well in 96-well “U”-bottom plates in 0.1 ml culture medium (RPMI 1640 with 10% fetal bovine serum). Anti-EphA3 antibody or human IgG1 isotype control antibody was added to final concentrations between 10 μg/ml and 1 ng/ml and the plates were incubated at 37° C. and 5% carbon dioxide in a tissue-culture incubator for 24 hours. As a positive control for apoptosis induction, separate cell samples were incubated with camptothecin (10 μM; Calbiochem). At the end of the incubation, cells were harvested and washed by centrifugation at 1000 rpm for 5 min followed by incubation in 0.1 ml of 1× Annexin V binding buffer (BD Pharmingen, Cat #556547, component no. 51-66121E) containing 5 μl FITC-conjugated Annexin V (BD Pharmingen, component no. 51-65874×) and 5 μl Propidium Iodide (component no. 51-66211E) for 15 minutes at room temperature in the dark. Four hundred μl of 1× binding buffer was added to each tube and annexin V-staining apoptotic cells were identified by flow cytometry. FIG. 4 provides data showing apoptosis activity of a human engineered antibody.

[2] = system: bone marrow cells from AML patients; experiment: Apoptosis induction (Annexin V flow cytometry), AML primary cells; assay type: cell-based, human; conditions: camptothecin 10 μM positive control, 24 hours
Method: An engineered human activating antibody that binds to EphA3 was evaluated for the ability to induce apoptosis in vitro in primary cells isolated from patients or individuals suffering from myeloproliferative disorders. Cells were seeded at 2.5×10^5 cells/well in 96-well “U”-bottom plates in 0.1 ml culture medium (RPMI 1640 with 10% fetal bovine serum). Anti-EphA3 antibody or human IgG1 isotype control antibody was added to final concentrations between 10 μg/ml and 1 ng/ml and the plates were incubated at 37° C. and 5% carbon dioxide in a tissue-culture incubator for 24 hours. As a positive control for apoptosis induction, separate cell samples were incubated with camptothecin (10 μM; Calbiochem). […]
In these samples, in each case in which CD123^+CD34^+CD38^− leukemic stem cells (LSC) could be identified, 100% of these LSC were also positive for EphA3 expression. In the majority of samples, there is good correlation between the percent of cells killed either by ADCC or apoptosis mediated by an engineered human anti-EphA3 antibody and the proportion of cells detected as positive for EphA3 by flow cytometry, indicating specificity of the antibody for EphA3-expressing cells.

[3] = system: peripheral blood cells from polycythemia vera (PV) patient; experiment: Apoptosis induction (Annexin V flow cytometry), PV primary cells; assay type: cell-based, human; conditions: sample PB-2, PV; camptothecin 10 μM positive control; 24 hours
Method: as §1

UniProt P29320, sequence (P29320 21-541 limits assumed): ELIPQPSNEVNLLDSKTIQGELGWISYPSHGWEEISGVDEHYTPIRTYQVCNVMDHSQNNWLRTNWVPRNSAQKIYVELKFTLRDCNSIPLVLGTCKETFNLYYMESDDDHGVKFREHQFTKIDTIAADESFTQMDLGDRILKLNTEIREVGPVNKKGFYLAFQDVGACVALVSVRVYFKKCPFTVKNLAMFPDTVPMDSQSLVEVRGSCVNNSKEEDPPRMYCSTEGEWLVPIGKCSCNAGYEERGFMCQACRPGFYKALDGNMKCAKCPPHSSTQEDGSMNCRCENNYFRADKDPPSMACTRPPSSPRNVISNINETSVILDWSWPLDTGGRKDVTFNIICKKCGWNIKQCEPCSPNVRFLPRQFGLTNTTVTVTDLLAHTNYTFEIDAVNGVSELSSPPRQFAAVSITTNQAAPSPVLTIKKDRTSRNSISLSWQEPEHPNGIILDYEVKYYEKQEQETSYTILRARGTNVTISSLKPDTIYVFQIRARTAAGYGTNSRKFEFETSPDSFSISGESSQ

monoclonal antibody IIIA4 gave an AFFINITY (EphA3 antigen) of 2.5 nM.
With CC[C@@]1(O)C(=O)OCc2c1cc1n(c2=O)Cc2cc3ccccc3nc2-1 [Camptothecin, camptothecin] the “Camptothecin-mediated apoptosis (% cell death)” value [1] was 78%, the “Camptothecin-mediated apoptosis (% cell death)” value ([2]; sample BM, 06, AML) was 59.8% and the “Camptothecin-mediated apoptosis (% cell death)” value ([2]; sample BM, 07, AML) was 47.8%. For the same molecule, the “Camptothecin-mediated apoptosis (% cell death)” value [3] was 73.2%.
